Assay results taken from patent US11844755B2, “Compounds and their use as therapeutically active substances in the treatment and/or reducing signs or symptoms of diseases involving the retinal pigment epithelium” (ENDOGENA THERAPEUTICS, INC., priority 2020, dated 2023).

Assays:
iPSC-fRPE cells [1] = assay: RPE cell proliferation (Hoechst 33342 live cell number); format: cell-based, human; details: test compound 5 μM in 0.1% DMSO, fixed at Day 5, Hoechst 33342 cell number, relative to plate internal DMSO controls (control = 1); for fold induction at 5 µM: Homo sapiens, RPE, 120 h, read-out: Relative Growth
Experimental: (§1) Induced pluripotent stem cell-derived fetal RPE (iPSC-fRPE) cells acquired from the University of California, Santa Barbara, were generated from human fetal RPE cells that were isolated and reprogramed to iPSC, then differentiated and sorted for cellular markers to collect RPE progenitors. Vials were transported frozen on dry ice and stored in −80° C.
(§2) For the phenotypic screens, iPSC-fRPE cells were thawed and cultured in Matrigel-coated flasks with N1VA media containing 1XMEM solution supplemented with 2.2 g/L Sodium Bicarbonate, 0.25 mg/ml Taurine, 0.02 ug/ml Hydrocortisone, 0.013 ug/ml Triiodo Thyronine, 0.1 ug/ml Lipoic acid, 1% MEM Non-Essential Amino Acids, 1% Penicilin/Streptomycin, 2% Neurocult SM1 supplement and 1% N1 supplement. For the initial cultures, Thiazovivin was added to the media at 2 μM for the first 24 hr of incubation, after which the media was replaced with fresh N1VA media for additional three-day incubation at 37° C. with 5% CO2.
(§3) iPSC-fRPE cells were plated with N1VA media at a density of 10,000 cells per well in Matrigel-coated 96-well plates and cultured for 24 h prior to the treatment with test compounds at a final concentration of 5 μM in 0.1% DMSO. Internal controls for each test plate were (a) 0.1% DMSO as a negative control and (b) 0.1% DMSO+10 ng/ml human recombinant bFGF (STEMCELL) as a positive control.
To assess proliferation of RPE cells, a replicate of compound-treated RPE cells were fixed at Day 5 and stained with Hoechst 33342 to determine live cell number with fluorescent microscopy. Cell numbers are reported relative to plate internal DMSO controls.

iPSC-fRPE cells [2] = assay: RPE pigmentation screen (light absorbance at 510 nm); format: cell-based, human; details: test compound 5 μM in 0.1% DMSO, 32 days, relative to plate internal DMSO controls (control = 1); for fold induction at 5 µM: Homo sapiens, 768 h
Experimental: as §1, §2, §3
To identify compounds that promote RPE pigmentation, cells were maintained for a period of 32 days and treated with medium containing the test or control compounds according to the media exchange regimen (FIG. 1). The degree of pigmentation was quantified by measuring the light absorbance at 510 nm with Cytation5 imaging reader (BIOTEK). Pigmentation values are finally reported relative to plate internal DMSO controls.

| Molecule | fold induction at 5 µM (iPSC-fRPE cells [1]) | fold induction at 5 µM (iPSC-fRPE cells [2]) | Relative Growth (iPSC-fRPE cells [1]) | Relative Pigmentation (iPSC-fRPE cells [2]) |
| --- | --- | --- | --- | --- |
| Fc1cc(-c2cnco2)cc2[nH]c(C3COc4ccccc4C3)nc12 (racemic) [Compound 8, 2-(3,4-dihydro-2H-1-benzopyran-3-yl)-7-fluoro-5-(1,3-oxazool-5-yl)-1H-1,3-benzodiazole] | 1.49 | 2.75 | – | – |
| c1ccc2c(c1)C[C@H](c1nc3ccc(-c4cnco4)cc3[nH]1)CO2 [Compound 1, (R)-5-(2-(chroman-3-yl)-1H-benzo[d]imidazol-6-yl)oxazole] | 1.7 | 4.98 | – | – |
| 2-(chroman-3-yl)-6-(oxazol-5-yl)benzo[d]oxazole [Compound 10] | – | – | 1.12 | 1.71 |
| Clc1ccc2c(c1)CC(c1nc3ccc(-c4cnco4)cc3[nH]1)CO2 (racemic) [Compound 5, 2-(6-chloro-3,4-dihydro-2H-1-benzopyran-3-yl)-6-(1,3-oxazol-5-yl)-1H-1,3-benzodiazole] | 1.52 | 1.04 | – | – |
| c1ccc2c(c1)CC(c1nc3ccc(-c4cnco4)cc3[nH]1)C2 [Compound 7, 2-(2,3-dihydro-1H-inden-2-yl)-6-(1,3-oxazolyl)-1H-1,3-benzodiazole] | 1.34 | 2.36 | – | – |
| Fc1c(-c2cnco2)ccc2nc(C3COc4ccccc4C3)[nH]c12 (racemic) [Compound 9, 2-(3,4-dihydro-2H-1-benzopyran-3-yl)-4-fluoro-5-(1,3-oxazol-5-yl)-1H-1,3-benzodiazole] | 1.13 | 4.27 | – | – |
| Fc1ccc2c(c1)OCC(c1nc3ccc(-c4cnco4)cc3[nH]1)C2 (racemic) [Compound 4, 2-(7-fluoro-3,4-dihydro-2H-1-benzopyran-3-yl)-6-(1,3-oxazol-5-yl)-1H-1,3-benzodiazole] | 1.78 | 5.08 | – | – |
| c1ccc2c(c1)CC(c1nc3ccc(-c4cnco4)cc3[nH]1)O2 (racemic) [Compound 3, 2-(2,3-dihydro-1-benzofuran-2-yl)-6-(1,3-oxazol-5-yl)-1H-1,3-benzodiazole] | 1.36 | 2.77 | – | – |
| c1ccc2c(c1)C[C@@H](c1nc3ccc(-c4cnco4)cc3[nH]1)CO2 [Compound 2, (S)-5-(2-(chroman-3-yl)-1H-benzo[d]imidazol-6-yl)oxazole] | 1.25 | 1.59 | – | – |
| Fc1cc(F)c2c(c1)CC(c1nc3ccc(-c4cnco4)cc3[nH]1)CO2 (racemic) [Compound 6, 2-(6,8-difluoro-3,4-dihydro-2H-1-benzopyran-3-yl)-6-(1,3-oxazol-5-yl)-1H-1,3-benzodiazole] | 1.42 | 2.3 | – | – |
| 2-(chroman-3-yl)-6-(oxazol-5-yl)benzo[d]oxazole [Compound 11] | – | – | 1.42 | 6.24 |
